Measurements as given in PMC3833348 (MedChemComm, 2013).
Blank lines part the entries; values can stand above or below the compound they belong to.

Legend:
P-gp [1] = biological target: T1, P-gp (Homo sapiens, UniProt P08183); experiment: Substrate accumulation assays in MCF-7/DX1 cells; format: cell-based
P-gp [2] = conditions: cited from earlier work
P-gp [3] = biological target: T1, P-gp; experiment: Inhibition of P-gp-mediated efflux of NBD-Aba in hCMEC/D3 cells; format: cell-based
[4] = Solubility in aqueous buffer; format: physicochemical; conditions: as compared to Aba-C10

T1 sequence (P08183 whole entry): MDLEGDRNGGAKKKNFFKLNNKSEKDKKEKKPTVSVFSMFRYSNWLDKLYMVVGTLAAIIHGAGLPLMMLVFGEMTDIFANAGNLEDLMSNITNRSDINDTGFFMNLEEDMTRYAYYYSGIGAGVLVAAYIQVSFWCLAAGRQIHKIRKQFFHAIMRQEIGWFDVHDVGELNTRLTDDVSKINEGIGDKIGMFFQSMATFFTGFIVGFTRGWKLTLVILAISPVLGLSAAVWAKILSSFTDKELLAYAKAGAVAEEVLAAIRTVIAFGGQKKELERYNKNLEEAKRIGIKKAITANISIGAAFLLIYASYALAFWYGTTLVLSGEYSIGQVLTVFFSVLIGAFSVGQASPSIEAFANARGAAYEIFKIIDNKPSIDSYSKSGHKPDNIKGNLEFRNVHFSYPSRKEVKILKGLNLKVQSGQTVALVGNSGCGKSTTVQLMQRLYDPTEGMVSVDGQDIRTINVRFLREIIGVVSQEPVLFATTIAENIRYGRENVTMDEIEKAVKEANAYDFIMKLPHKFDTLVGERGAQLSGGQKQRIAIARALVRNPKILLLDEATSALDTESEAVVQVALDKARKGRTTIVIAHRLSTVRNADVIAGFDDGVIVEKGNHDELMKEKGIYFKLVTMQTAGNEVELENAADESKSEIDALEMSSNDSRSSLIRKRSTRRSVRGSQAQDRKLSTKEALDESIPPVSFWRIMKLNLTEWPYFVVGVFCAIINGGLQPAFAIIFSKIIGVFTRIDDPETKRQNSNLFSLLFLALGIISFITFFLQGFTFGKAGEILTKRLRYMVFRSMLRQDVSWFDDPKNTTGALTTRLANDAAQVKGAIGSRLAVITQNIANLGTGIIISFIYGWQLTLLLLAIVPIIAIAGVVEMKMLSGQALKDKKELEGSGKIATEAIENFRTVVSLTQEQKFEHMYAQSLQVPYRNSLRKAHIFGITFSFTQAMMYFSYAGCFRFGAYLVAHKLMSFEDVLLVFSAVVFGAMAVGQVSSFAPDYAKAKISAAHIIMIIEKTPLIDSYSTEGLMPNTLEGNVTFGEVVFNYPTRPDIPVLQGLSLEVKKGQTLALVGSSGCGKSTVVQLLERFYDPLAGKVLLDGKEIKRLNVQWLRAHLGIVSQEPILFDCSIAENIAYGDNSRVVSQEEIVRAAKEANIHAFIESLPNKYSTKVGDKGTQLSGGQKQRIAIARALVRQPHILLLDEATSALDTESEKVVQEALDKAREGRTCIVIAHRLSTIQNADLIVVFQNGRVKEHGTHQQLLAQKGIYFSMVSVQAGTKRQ

Effect on transport in MCF-7/DX1 cells (P-gp [1]; up to a concentration of 100 µM, data not shown): no effect on transport
Compound: Nc1nc(NC2CC2)c2ncn([C@H]3C=C[C@@H](CO)C3)c2n1 [abacavir, reference compound]
Fold increase in brain levels, P-gp-null mice versus wild-type mice (P-gp [2]): 20 fold

Fold more potent than monomeric abacavir (P-gp [3]): greater than 500 fold
Compound: Nc1nc(NC2CC2)c2ncn([C@H]3C=C[C@@H](COC(=O)CCCCCCCCCCC(=O)OC[C@@H]4C=C[C@H](n5cnc6c(NC7CC7)nc(N)nc65)C4)C3)c2n1 [Aba-C10]

Solubility in aqueous buffer [4]: more favorable solubility | Fold decrease of potency in MCF-7/DX1 cells versus 12D7-MDR (P-gp [1]; NBD-Aba as substrate): ~6 fold | Fold decrease of potency in MCF-7/DX1 cells versus hCMEC/D3 (P-gp [1]; NBD-Aba as substrate): about 3 fold | Inhibition of efflux of each of the substrates in MCF-7/DX1 cells (P-gp [1]; substrates BODIPY-prazosin, doxorubicin, [3H]-daunomycin and NBD-Aba): effectively inhibit efflux
Compound: Nc1nc(NC2CC2)c2ncn([C@H]3C=C[C@@H](COC(=O)CCCCCCCCC(=O)OC[C@@H]4C=C[C@H](n5cnc6c(NC7CC7)nc(N)nc65)C4)C3)c2n1 [Aba-C8]
